Laboratory results taken from patent publication US8865894B2, “Oxazolidin-2-one compounds and uses thereof” (Novartis AG, priority 2012, dated 2014).

What was measured:
Format in all cases: cell-based
mTOR = target: T1, mTOR (Mus musculus, UniProt Q9JLN9); assay: Cellular assay mTOR (phospho-T389 S6K1 SureFire in TSC1-/- MEF cells); conditions: TSC1-/- MEF cells; read-out: mTOR S6K(T389)_TSC1ko/ IC50
T1 construct: endogenous in cells; host or cells: TSC1-/- MEF (mouse embryo fibroblasts)
From the text: A cell based assay (384-well format) was developed for determination of compound effects on cellular mTOR kinase activity in MEF (mouse embryo fibroblasts) cells derived from mice lacking TSC1 (Tuberosclerosis Complex1) a potent suppressor of mTOR kinase activity. Due to lack of TSC1 the mTOR kinase is constitutively activated resulting in permanent phosphorylation of Thr 389 of S6 kinase 1 (S6K1) which is one of the downstream targets of mTOR.
Using a SureFire Kit that enables to determine the phosphorylation of Thr389 on the S6K1 an assay was developed, validated and implemented in the Alpha-Screen format that allows the quantitative determination of phospho-T389 of S6K1 in cell lysates. […] These were in agreement with those values obtained with the biochemical mTOR ATP-binding assay enabling a quantitative comparison of potency of mTOR inhibitors.
TSC1−/− MEFs cells (Kwiatkowski, D. J., Zhang, H., Bandura, J. L., Heiberger, K. M., Glogauer, M., el-Hashemite, N., and Onda, H. (2002) Hum. Mol. Genet. 11, 525-534) were cultured in DMEM high glucose medium supplemented with 10% FBS (Invitrogen), 2 mM Glutamine and 1% (w/v) Penicillin/Streptomycin at 37° C., 5% CO2.
The SureFire kit for determination of P70S6kinase phosphorylation was purchased from Perkin Elmer (p70S6K p-T389, #TGR70S50K) and the assay was performed according to the instructions of the supplier and according to the generic method for SureFire assays. Shortly, 5 μL cell lysate per well were transferred to 384-well white proxy-plates (for luminescent readout) and mixed with […] and […] (final volume: 12 μL). After 3 h incubation in the dark at RT luminescence was read with the Envision Reader (Perkin Elmer). Untreated cells were used as control (high control) and cells treated with 3 μM BEZ235 were used as low control. The assay window between the signals obtained for the high and the low controls were defined as 100% and compound effects were expressed as percent inhibition. IC50 values were calculated from the dose response curves by graphical extrapolation.

A2058 cells = assay: Cell cycle G2/M arrest Cytospin assay to detect tubulin binding (off-target); parameters: key: 0=no condensed DNA observed (indicating no off target activity); 1=(indicating weak off target activity); 2=(indicating medium off target activity); 3=large amount of condensed DNA observed (indicating strong off-target activity); conditions: 5 μM test item, 24 hours
Procedure: The off-target effect (evidence of tubulin binding) was measured as follows.
Cell cycle G2/M arrest Cytospin assay to detect tubulin binding (off-target) binding activities of MAPP derivatives: 5×10^5 cells A2058 cells were plated in 6-well cluster, with 2 mL of DMEM (high Glucose containing 1% sodium pyruvate, 1% glutamin and 10% FCS). 18 hours later, the test items were added at a concentration of 5 μM (spiking 1 μL of a 10 mM solution of the test item). 24 hours later, the cells were trypsinized and transferred into a 15 mL conical tube. Cells are then pelleted by centrifugation, and resuspended with PBS/0 (containing 10% FCS). Cells are counted with a CASY counter, and each samples equilibrated to 1×10^6 cells/mL. […] The staining was visually assessed for the presence of condensed DNA and given a score where 0=no condensed DNA observed (indicating no off target activity), 1=(indicating weak off target activity), 2=(indicating medium off target activity), 3=large amount of condensed DNA observed (indicating strong off-target activity).

[1] = target: T2, human PI3Kalpha p110 catalytic subunit (Rat-1 pBABEpuro Myr-HA-hp110alpha) (Homo sapiens, UniProt P42336); assay: Cellular assay PI3Kalpha (p-Akt(S473) SureFire, Rat-1_PI3Kalpha cells); conditions: 1 h compound treatment, read-out: Rat1-PI3Ka/ IC50
T2 construct: Myr (myristoylation signal) (N); HA (N); expressed in transfected cells; host or cells: Rat-1
T2 sequence (P42336 whole entry): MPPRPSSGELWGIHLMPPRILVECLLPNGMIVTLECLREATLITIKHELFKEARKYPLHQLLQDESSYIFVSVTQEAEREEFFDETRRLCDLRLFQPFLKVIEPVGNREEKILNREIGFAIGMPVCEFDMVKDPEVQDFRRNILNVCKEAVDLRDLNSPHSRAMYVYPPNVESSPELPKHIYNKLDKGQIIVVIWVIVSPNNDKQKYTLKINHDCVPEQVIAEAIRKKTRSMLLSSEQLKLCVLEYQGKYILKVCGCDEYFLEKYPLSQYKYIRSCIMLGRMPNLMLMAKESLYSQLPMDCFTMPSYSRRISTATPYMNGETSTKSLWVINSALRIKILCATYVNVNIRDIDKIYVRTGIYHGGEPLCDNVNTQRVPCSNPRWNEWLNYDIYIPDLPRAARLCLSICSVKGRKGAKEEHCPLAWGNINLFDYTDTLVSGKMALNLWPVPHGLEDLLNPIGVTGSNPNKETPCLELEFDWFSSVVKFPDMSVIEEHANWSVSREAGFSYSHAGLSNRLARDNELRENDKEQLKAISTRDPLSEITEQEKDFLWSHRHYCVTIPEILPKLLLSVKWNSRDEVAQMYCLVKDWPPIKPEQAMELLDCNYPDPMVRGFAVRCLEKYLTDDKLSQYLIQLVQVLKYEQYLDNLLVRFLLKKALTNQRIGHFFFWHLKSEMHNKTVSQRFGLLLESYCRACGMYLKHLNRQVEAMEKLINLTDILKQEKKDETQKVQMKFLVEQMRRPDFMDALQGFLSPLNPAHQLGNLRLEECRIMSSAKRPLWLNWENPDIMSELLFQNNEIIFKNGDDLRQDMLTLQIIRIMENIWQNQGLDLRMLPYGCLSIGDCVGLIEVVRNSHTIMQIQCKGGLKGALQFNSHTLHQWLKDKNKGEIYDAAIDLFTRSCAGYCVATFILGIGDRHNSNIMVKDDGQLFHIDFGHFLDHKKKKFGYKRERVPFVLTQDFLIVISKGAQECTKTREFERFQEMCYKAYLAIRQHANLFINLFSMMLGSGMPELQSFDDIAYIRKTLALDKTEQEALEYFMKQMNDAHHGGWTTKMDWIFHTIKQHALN
T2 sequence (Q63787 whole entry partner): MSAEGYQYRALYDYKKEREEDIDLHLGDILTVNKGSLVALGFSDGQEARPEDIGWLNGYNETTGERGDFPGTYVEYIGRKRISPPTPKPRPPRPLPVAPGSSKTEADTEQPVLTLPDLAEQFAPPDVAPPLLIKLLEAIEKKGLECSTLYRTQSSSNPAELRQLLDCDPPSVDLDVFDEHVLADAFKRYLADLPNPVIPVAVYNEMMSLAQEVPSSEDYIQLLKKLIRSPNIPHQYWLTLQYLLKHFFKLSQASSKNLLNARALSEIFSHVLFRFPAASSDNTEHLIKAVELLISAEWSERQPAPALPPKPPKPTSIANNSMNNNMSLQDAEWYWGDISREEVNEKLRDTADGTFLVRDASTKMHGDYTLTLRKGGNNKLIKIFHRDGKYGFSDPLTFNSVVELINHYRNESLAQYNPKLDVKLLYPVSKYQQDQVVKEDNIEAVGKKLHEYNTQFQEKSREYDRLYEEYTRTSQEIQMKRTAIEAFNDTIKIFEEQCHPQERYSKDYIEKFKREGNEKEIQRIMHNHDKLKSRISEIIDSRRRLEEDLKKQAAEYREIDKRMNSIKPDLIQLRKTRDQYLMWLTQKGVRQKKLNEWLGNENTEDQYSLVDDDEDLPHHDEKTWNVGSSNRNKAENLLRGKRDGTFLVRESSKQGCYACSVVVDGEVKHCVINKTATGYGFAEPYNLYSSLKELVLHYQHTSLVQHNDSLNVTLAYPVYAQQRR
From the text: (§1) AlphaScreen (Amplified Luminescent Proximity Homogeneous Assay, ALPHA, Perkin Elmer) is a non-radioactive bead-based proximity assay technology to study biomolecular interactions in a homogenous microtiter plate format. The brand name SureFire denotes AlphaScreen assays that are adapted to quantify the phosphorylation of endogenous cellular proteins in cell lysates, by using matched antibody pairs, which consist of an anti-phospho-kinase and an anti-kinase antibody. The assay allows characterization of kinase signaling in cells as well as measurement of kinase inhibitor effects. The AlphaScreen technology provides several advantages over standard assay techniques such as ELISA, as it avoids time-consuming washing procedures and reduces plate handling. Furthermore, it is miniaturizable at least to a 384-well format and provides sensitivity down to the femtomolar range, dependent on the affinity of the antibodies included in the individual AlphaScreen SureFire assay kit. High sensitivity is reached by an intrinsic amplification mechanism, which involves production of singlet oxygen molecules. SureFire assay kits are commercially available for specific targets and include pairs of validated antibodies (PerkinElmer). This report describes common procedures applied for AlphaScreen SureFire assays and respective semi-automated steps for routine kinase inhibitor profiling in cell-based assays.
(§2) The Rat-1 cell lines stably overexpressing activated PI3K class I isoforms Rat-1 pBABEpuro Myr-HA-hp110 delta (Rat-1_PI3Kdelta) and Rat-1 pBABEpuro Myr-HA-hp110alpha (Rat-1_PI3Kalpha) and Rat-1 pBABEpuro Myr-HA-hp110 beta (Rat-1_PI3beta) were prepared as described (Maira S M, Stauffer F, Brueggen J, Furet P, Schnell C, Fritsch C, Brachmann S, Chène P, de Pover A, Schoemaker K, Fabbro D, Gabriel D, Simonen M, Murphy L, Finan P, Sellers W, García-Echeverría C (2008), Mol Cancer Ther. 7:1851-63 and Maira S M, Pecchi S, Brueggen J, Huh K, Schnell C, Fritsch C, Nagel T, Wiesmann M, Brachmann S, Dorsch M, Chène P, Schoemaker K, De Pover A, Menezes D, Fabbro D, Sellers W, García-Echeverría C, Voliva C F (2011), Mol. Cancer Ther., accepted). All cell lines were cultivated in complete growth medium (DMEM high glucose, 10% (v/v) fetal bovine serum, 1% (v/v) MEM NEAA, 10 mM HEPES, 2 mM L-glutamine, puromycin (10 μg/mL for Rat-1_PI3Kdelta and Rat-1_PI3Kalpha, 4 ug/mL for Rat-1_PI3beta), 1% (v/v) Pen/Strep) to 90% confluency at 37° C./5% CO2/90% humidity in a humidified CO2 incubator and were split twice a week.
(§3) The following materials were used for p-AKT(S473) detection in Rat-1 cell lysates: Dulbecco's modified Eagle's medium (DMEM) high glucose (Gibco Invitrogen, Basel, Switzerland, Cat. No. 41965), Heat Inactivated Fetal Bovine Serum, Qualified (HI FBS; Gibco Invitrogen, Basel, Switzerland, Lot. No. 16140), MEM non essential amino acids (NEAA; Gibco Invitrogen, Basel, Switzerland, Cat. No. 11140), HEPES (Gibco Invitrogen, Basel, Switzerland, Cat. No. 15630), Penicillin/Streptomycin (Pen/Strep, 100×; Gibco Invitrogen, Basel, Switzerland, Cat. No. 15140-122), L-Glutamine (Gibco Invitrogen, Basel, Switzerland, Cat. No. 25030), Puromycin (Sigma Aldrich, Buchs, Switzerland, Cat. No. P9620), DMSO (MERCK, Dietikon, Switzerland, Cat. No. 8.02912.2500), H2O, MilliQ-H2O unless otherwise stated (MILLIPORE QGARDOOR1, Millipore, Zug, Switzerland), Bovine serum albumine (BSA; Sigma Aldrich, Buchs, Switzerland Cat. No. A8412), SureFire p-Akt 1/2 (Ser473) Assay Kit (PerkinElmer, Schwerzenbach, Switzerland, Cat. No. TGRAS50K).
(§4) The p-Akt(S473) SureFire assay measures the phosphorylation of endogenous cellular Akt 1/2 at Ser473 in cell lysates. Using Rat-1 cells stably expressing myr-HA-tagged versions of the human PI3Kdelta, PI3Kalpha, or PI3Kbeta p110 catalytic subunit isoforms, the assay was developed as a two-plate protocol in a 384-well format.

[2] = target: T3, human PI3Kbeta p110 catalytic subunit (Rat-1 pBABEpuro Myr-HA-hp110 beta) (Homo sapiens, UniProt P42338); assay: Cellular assay PI3Kbeta (p-Akt(S473) SureFire, Rat-1_PI3beta cells); conditions: p-Akt(S473), 1 h compound treatment; read-out: Rat1-PI3Kb/ IC50
T3 construct: Myr (myristoylation signal) (N); HA (N); expressed in transfected cells; host or cells: Rat-1
T3 sequence (P42338 whole entry): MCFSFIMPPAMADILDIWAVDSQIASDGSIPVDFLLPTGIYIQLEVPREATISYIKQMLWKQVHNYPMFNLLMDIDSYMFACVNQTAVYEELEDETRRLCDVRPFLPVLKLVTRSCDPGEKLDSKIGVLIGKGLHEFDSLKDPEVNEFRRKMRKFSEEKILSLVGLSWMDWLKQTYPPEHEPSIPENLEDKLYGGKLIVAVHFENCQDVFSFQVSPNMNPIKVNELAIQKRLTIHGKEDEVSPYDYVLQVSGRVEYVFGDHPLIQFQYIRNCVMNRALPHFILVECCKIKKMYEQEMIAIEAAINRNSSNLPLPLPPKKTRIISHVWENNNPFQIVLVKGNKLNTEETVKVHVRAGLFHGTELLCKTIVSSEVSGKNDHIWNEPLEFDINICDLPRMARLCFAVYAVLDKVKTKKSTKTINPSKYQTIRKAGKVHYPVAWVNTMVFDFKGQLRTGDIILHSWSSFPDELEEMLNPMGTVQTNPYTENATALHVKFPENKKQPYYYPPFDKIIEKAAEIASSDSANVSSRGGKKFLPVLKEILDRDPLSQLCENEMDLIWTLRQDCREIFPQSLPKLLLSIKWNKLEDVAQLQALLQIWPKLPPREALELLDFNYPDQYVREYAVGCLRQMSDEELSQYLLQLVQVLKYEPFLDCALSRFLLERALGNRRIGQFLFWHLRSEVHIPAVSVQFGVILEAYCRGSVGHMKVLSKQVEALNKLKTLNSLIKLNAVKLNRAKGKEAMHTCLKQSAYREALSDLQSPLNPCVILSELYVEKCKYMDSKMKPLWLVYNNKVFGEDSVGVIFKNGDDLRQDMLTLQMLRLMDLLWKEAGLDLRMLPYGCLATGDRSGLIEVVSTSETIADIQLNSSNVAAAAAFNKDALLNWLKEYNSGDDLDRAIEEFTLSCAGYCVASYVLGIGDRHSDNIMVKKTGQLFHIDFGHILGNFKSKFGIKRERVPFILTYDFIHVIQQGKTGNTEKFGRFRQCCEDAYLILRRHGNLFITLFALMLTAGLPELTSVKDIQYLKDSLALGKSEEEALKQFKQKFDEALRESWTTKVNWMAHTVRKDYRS
T3 sequence (Q63787 whole entry partner): as the sequence (Q63787 whole entry partner) above
From the text: as §1, §2, §3, §4

[3] = target: T4, human PI3Kdelta p110 catalytic subunit (Rat-1 pBABEpuro Myr-HA-hp110 delta) (Homo sapiens, UniProt O00329); assay: Cellular assay PI3Kdelta (p-Akt(S473) SureFire, Rat-1_PI3Kdelta cells); conditions: 1 h compound treatment, read-out: Rat1-PI3Kd/ IC50
T4 construct: Myr (myristoylation signal) (N); HA (N); expressed in transfected cells; host or cells: Rat-1
T4 sequence (O00329 whole entry): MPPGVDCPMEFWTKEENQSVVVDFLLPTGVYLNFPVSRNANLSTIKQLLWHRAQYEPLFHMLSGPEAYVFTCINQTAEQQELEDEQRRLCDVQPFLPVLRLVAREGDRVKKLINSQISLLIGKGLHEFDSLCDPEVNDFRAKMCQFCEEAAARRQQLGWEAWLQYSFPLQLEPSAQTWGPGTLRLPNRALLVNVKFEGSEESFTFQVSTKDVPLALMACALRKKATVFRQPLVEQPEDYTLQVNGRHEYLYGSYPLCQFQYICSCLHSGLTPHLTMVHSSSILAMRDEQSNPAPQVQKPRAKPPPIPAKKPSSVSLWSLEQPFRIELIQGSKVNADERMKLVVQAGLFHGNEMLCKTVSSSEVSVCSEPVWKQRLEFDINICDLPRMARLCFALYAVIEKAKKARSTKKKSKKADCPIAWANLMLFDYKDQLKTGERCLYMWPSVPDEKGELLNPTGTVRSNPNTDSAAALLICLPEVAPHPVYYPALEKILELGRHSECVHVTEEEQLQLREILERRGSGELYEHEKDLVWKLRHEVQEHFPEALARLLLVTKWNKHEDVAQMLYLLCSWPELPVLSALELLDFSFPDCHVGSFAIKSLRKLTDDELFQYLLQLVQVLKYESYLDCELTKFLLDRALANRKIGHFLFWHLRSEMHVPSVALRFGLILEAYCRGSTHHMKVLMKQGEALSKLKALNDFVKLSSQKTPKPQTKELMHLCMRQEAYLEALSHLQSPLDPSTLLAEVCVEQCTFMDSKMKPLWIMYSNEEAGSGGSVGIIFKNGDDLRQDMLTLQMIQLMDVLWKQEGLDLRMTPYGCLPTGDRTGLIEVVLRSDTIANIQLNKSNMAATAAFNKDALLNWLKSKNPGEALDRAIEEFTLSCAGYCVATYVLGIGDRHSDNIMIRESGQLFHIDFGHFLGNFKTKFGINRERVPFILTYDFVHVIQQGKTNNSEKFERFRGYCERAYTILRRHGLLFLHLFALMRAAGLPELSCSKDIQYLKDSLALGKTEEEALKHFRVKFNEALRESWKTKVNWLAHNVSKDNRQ
T4 sequence (Q63787 whole entry partner): as the sequence (Q63787 whole entry partner) above
From the text: as §1, §2, §3, §4

IC50 (mTOR)	Score (condensed DNA, G2/M arrest; off-target tubulin binding) (A2058 cells)	IC50 [1]	IC50 [2]	IC50 [3]	SMILES
602 nM	3				Nc1cc(C(F)(F)F)c(-c2cc(N3CCOCC3)nc(N3CCOCC3)n2)cn1 [WO2007/084786 Example 10, reference compound]
1230 nM		120 nM	132 nM	70 nM	Nc1ncc(-c2cc(N3C(=O)OC[C@@H]3CO)nc(N3CCOCC3)n2)c(C(F)(F)F)n1 [Example 7, (S)-3-(2′-Amino-2-morpholin-4-yl-4′-trifluoromethyl-[4,5′]bipyrimidinyl-6-yl)-4-hydroxymethyl-oxazolidin-2-one]
1570 nM	0	176 nM	93 nM	59 nM	CC1(CO)COC(=O)N1c1cc(-c2cnc(N)nc2C(F)(F)F)nc(N2CCOCC2)n1 (single isomer, unassigned) [Example 3A, 3-(2′-amino-2-morpholino-4′-(trifluoromethyl)-4,5′-bipyrimidin-6-yl)-4-(hydroxymethyl)-4-methyloxazolidin-2-one]
1110 nM	0	215 nM	331 nM	172 nM	CC1(CO)COC(=O)N1c1cc(-c2cnc(N)nc2C(F)(F)F)nc(N2CCOCC2)n1 (single isomer, unassigned) [Example 3B, 3-(2′-amino-2-morpholino-4′-(trifluoromethyl)-4,5′-bipyrimidin-6-yl)-4-(hydroxymethyl)-4-methyloxazolidin-2-one]
